Reference: US9345793B2, “Compounds for binding to the platelet specific glycoprotein IIB/IIIA and their use for imaging of thrombi” (PIRAMAL IMAGING SA, priority 2011, dated 2016)
Where two headings read alike, the source gives them in different places.

Assays:
rat microsomes = test: In vitro metabolic stability in liver microsomes, rat; type: in vitro ADME; settings: Wistar, male, calculated
Method: (§1) The incubation concentration was 0.3 μM. […] The samples were frozen over night at −20° C.

[1] = Plasma protein binding by equilibrium dialysis, human plasma; type: in vitro ADME; settings: plasma (10% in buffer), Caucasian, read-out: Fu (Mari)
Method: (§2) The determination of the plasma protein binding of compounds was performed by means of an equilibrium dialysis in a 96-well HT plate. Solutions of test compound (0.3 μM and 3 μM) were prepared in buffer (50 mM phosphate buffer) and 10% plasma. A 96 well HT dialysis plate (Teflon) was assembled so that each well was divided in two compartments by a semi-permeable cellulose membrane (regenerated Cellulose, MWCO 12-14K). The phosphate buffer solution (150 μL) was added to one side of the membrane and the plasma solution to the other side (150 μL). The compounds were added to the plasma solution side and were incubated at 37 degree. The unbound fraction of the compound could pass through the membrane and equilibrium between the two sides could be reached (6-8 h, 37° C.). Both solutions were analyzed for each compound (plasma-free and plasma-containing) by LC-MS. Both solutions for each compound were diluted with buffer or plasma to reach the same matrix (10% plasma) for analysis and were precipitated by the addition of methanol. The fraction unbound (Fu) was calculated as the quotient of the equilibrium concentrations of the compound in plasma-free and plasma-containing solution.

[2] = target: human GPIIb/IIIa receptor (Homo sapiens (Human), UniProt P05106+P08514); test: Affinity assay: displacement of tritiated reference compound from immobilized purified GPIIb/IIIa; type: binding
Chain of human GPIIb/IIIa receptor (P08514 32-887): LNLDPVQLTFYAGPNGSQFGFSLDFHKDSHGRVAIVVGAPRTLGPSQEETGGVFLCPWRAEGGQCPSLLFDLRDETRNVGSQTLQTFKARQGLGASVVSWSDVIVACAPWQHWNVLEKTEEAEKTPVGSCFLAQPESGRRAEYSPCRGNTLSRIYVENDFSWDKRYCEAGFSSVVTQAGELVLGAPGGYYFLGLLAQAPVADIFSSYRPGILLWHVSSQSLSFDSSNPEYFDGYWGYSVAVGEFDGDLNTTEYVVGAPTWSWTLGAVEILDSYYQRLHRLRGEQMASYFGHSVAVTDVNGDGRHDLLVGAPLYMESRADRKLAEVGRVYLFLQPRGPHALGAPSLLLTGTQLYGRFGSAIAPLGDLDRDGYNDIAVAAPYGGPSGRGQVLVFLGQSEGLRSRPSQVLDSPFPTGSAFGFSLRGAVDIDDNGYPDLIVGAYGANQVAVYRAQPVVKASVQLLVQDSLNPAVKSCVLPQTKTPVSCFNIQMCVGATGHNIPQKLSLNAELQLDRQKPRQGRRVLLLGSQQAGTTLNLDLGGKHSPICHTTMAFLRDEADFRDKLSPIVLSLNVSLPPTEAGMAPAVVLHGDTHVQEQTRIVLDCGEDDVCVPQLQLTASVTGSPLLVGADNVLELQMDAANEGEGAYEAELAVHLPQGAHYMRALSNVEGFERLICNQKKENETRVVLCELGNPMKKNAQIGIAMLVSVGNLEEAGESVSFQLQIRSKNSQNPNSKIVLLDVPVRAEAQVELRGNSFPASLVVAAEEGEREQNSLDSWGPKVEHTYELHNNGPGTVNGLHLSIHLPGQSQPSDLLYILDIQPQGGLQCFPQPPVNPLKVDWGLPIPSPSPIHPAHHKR
Chain of human GPIIb/IIIa receptor (P08514 891-1039 partner): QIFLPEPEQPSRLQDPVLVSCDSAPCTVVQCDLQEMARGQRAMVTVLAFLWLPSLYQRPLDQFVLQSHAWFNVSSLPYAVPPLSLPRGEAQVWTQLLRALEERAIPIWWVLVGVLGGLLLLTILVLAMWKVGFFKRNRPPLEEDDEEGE
Chain of human GPIIb/IIIa receptor (P05106 27-788): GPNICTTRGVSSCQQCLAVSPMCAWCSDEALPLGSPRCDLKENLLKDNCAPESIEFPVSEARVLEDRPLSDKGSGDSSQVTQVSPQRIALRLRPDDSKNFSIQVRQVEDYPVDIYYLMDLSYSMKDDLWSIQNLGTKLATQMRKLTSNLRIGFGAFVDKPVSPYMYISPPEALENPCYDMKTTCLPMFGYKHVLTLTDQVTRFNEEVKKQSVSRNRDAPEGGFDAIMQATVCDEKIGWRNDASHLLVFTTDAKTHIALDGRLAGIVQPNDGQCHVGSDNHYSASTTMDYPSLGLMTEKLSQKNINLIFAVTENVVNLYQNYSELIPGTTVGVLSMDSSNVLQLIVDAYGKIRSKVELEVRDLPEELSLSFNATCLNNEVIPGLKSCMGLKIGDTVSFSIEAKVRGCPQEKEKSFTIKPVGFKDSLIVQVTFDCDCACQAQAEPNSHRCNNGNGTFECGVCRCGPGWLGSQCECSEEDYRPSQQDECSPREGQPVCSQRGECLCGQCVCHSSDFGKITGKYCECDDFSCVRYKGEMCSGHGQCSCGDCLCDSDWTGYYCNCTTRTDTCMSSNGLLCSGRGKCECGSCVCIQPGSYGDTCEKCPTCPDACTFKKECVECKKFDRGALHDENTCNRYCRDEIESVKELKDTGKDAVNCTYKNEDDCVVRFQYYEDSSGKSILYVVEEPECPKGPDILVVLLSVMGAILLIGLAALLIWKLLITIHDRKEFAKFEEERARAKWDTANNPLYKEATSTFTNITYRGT
Method: Affinity assay: In the first step human GPIIb/IIIa purified from human platelets was immobilized on a 96-well solid plate. After 48 hours the plates were washed and the unspecific binding sites were blocked with Roti®-Block. 2. In the next step, the plates were simultaneously incubated with a tritium labeled known GPIIb/IIIa binder (^3H) mixed with increasing concentrations of the novel small molecule compounds (inhibitor, ^19F). The higher the affinity of the inhibitor, the lower the bound fraction of the tritiated known GPIIb/IIIa binder (^3H) was. The fraction of tritiated compound (^3H), which is not displaced by inhibitor, was measured in a microplate scintillation counter.
Purified human glycoprotein IIb/IIIa (20 mM Tris-HCl, 0.1 M NaCl, 0.1% Triton X-100, 1 mM CaCl2, 0.05% NaN3, 50% Glycerol, pH 7.4) was purchased from Enzyme Research Laboratories Inc. (South Bend, Ind.). The GPIIb/IIIa receptor was diluted in phosphate-buffered saline (Dulbecco's Phosphate Buffered Saline (D-PBS(+)) with calcium and magnesium, GIBCO®, Invitrogen) with 0.01% bovine serum albumin (albumin from bovine serum—lyophilized powder, ≧96%, Sigma).
The GPIIb/IIIa receptor was immobilized 48 hours at least (100 μL per well, 48 to maximum 96 hours) on a 96-well solid plate (Immuno Plate MaxiSorp™, Nunc, Roskilde, Denmark) at 277 K to 280 K and at a concentration of 0.1 μg per well to 1 μg per well. As negative control one row of the plate (n=8) was incubated just with 2% bovine serum albumin (200 μper well, albumin from bovine serum—lyophilized powder, […], Sigma, diluted in D-PBS(+)). After washing three times with the wash buffer (230 μL per well, Dulbecco's Phosphate Buffered Saline (D-PBS (−)) contains no calcium or magnesium, GIBCO®, Invitrogen) residual exposed plastic and unspecific binding sites were blocked by incubating the plate with a special blocking solution (200 μL per well, Roti®-Block, Carl Roth GmbH Co KG, Karlsruhe) containing 2% bovine serum albumin (Albumin from bovine serum—lyophilized powder, ≧96%, Sigma) 1 hour at room temperature.
After washing three times with the wash buffer 50 μL of tritiated reference compound (60 nM, ^3H-labeled compound) and 50 μL of novel compound (inhibitor, ^19F) were simultaneously added to each well and incubated for 1 hour at room temperature. Several concentrations of each novel inhibitor (0.1, 1, 2, 5, 10, 20 50, 100, 200, 500, 1000, 2000, 5000, 10000 and 20000 nM) were investigated. At each concentration of inhibitor a fourfold determination was performed.
The maximum value of tritiated reference compound was determined without addition of inhibitor (n=8). To exclude unspecific binding of ^3H-reference compound wells without glycoprotein receptors were used as negative controls (n=12, identically treated just without GP IIb/IIIa receptors).
After one hour the plate was washed three times with phosphate-buffered saline (200 μL per well, Dulbecco's Phosphate Buffered Saline (D-PBS(+)), GIBCO®, Invitrogen). Following 140 μL of liquid scintillation cocktail (MicroScint™ 40 aqueous, Perkin Elmer) was added to each well. After 15 min at room temperature the plates were measured at the microplate scintillation counter (TopCount NXT v2.13, Perkin Elmer, Packard Instrument Company).
In the first step human glycoprotein IIb/IIIa, which is purified from human platelets, was immobilized on a 96-well solid plate. After 48 hours at least the plates were washed and the unspecific binding sites were blocked with Roti®-Block. In the next step, the plates were simultaneously incubated with a tritium labeled reference compound and the novel small molecule compound (inhibitor). The higher the affinity of the inhibitor, the smaller is the bound fraction of reference compound. The fraction of tritiated reference compound, which is not displaced by inhibitor, was measured at a microplate scintillation counter.

monkey microsomes = test: In vitro metabolic stability in liver microsomes, monkey; type: in vitro ADME; settings: Cynomolgus, female, calculated
Method: as §1

[3] = Plasma protein binding by equilibrium dialysis, monkey plasma; type: in vitro ADME; settings: plasma (10% in buffer), Cynomolgus, read-out: Fu (Mari)
Method: as §2

Human liver microsomes = test: In vitro metabolic stability in liver microsomes, human; type: in vitro ADME; settings: both, 0.3 μM, pH 7.4
Method: as §1

mouse microsomes = test: In vitro metabolic stability in liver microsomes, mouse; type: in vitro ADME; settings: NMRI, female, calculated
Method: as §1

[4] = In vitro metabolic stability in liver microsomes, human; type: in vitro ADME; settings: pH 7.4
Method: as §1

[5] = 19F compounds vs 60 nM 3H-labeled reference compound, 1 hour at room temperature, read-out: IC50 human
[6] = values repeated beside the 18F-compound, read-out: IC50 human (corresponding 19F-compound, Table 2)

Structure (SMILES): O=C(O)C[C@H](NC(=O)[C@@H]1CCCN(C(=O)CCC2CCNCC2)C1)c1cccc(OCCF)c1 [Example 1, (3S)-3-[3-(2-Fluoroethoxy)phenyl]-3-[({(3R)-1-[3-(piperidin-4-yl)propanoyl]piperidin-3-yl}carbonyl)amino]propanoic acid]
- CLblood (rat microsomes): 2.4 mL/day/kg
- fraction unbound at 0.3 μM [1]: 0.91
- fraction unbound at 3 μM [1]: 0.9
- IC50 [2, 5]: 101 nM
- IC50 [2, 6]: 101 nM
- CLblood (monkey microsomes): 2.4 mL/day/kg
- fraction unbound at 0.3 μM [3]: 0.99
- fraction unbound at 3 μM [3]: 0.93
- CLblood (Human liver microsomes): 2.4 mL/day/kg

Structure (SMILES): O=C(O)C[C@H](NC(=O)[C@@H]1CCCN(C(=O)CCC2CCNCC2)C1)c1cncc(OCCF)c1 [Example 3, (3S)-3-[5-(2-Fluoroethoxy)pyridin-3-yl]-3-[({(3R)-1-[3-(piperidin-4-yl)propanoyl]-piperidin-3-yl}carbonyl)amino]propanoic acid]
- CLblood (rat microsomes): 2.4 mL/day/kg
- fraction unbound at 0.3 μM [1]: 0.96
- fraction unbound at 3 μM [1]: 1
- IC50 [2, 5]: 20 nM
- IC50 [2, 6]: 20 nM
- CLblood (mouse microsomes): 2.4 mL/day/kg
- CLblood (monkey microsomes): 2.4 mL/day/kg
- fraction unbound at 0.3 μM [3]: 1
- fraction unbound at 3 μM [3]: 1
- recovery at 60 min, 0.3 μM [4]: ~100%
- CLblood (Human liver microsomes): 2.4 mL/day/kg
